Assay [1] deals with Paired box protein Pax-8 (Homo sapiens, UniProt Q06710). Description: inhibitors of PAX8-driven TPO luciferase reporter, dose response, RMG-I cells, cherry-pick (AID 687027).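 Also: luciferase reporter driven by Pax8 target thyroperoxidase promoter measured by SteadyGlo luminescence.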 The format is functional, cell-based.
Assay [2] can be described thus: A2780 ovarian cancer cell cytotoxicity, dose response, cytotoxicity control, plate reader, dry powder samples (AID 743046). It is filed as functional, cell-based.
The nature of assay [3]: NIH:OVCAR-3 ovarian cancer cell cytotoxicity, dose response, PAX8 inhibitor project, plate reader, dry powder samples (AID 743044). It is filed as functional, cell-based.
Assay [4] in a line: cytotoxicity in OVCAR8 ovarian cancer cells, dose response, PAX8 project, cell-based, plate reader, dry powder samples (AID 743197). The format is functional. The settings on record: OVCAR-8.
Assay [5] has as its target fMet-Leu-Phe receptor (Homo sapiens, UniProt P21462). Description: FPR ligands, dose response (AID 519). The format is functional.
Assay [6] deals with Bifunctional protein GlmU (Mycobacterium tuberculosis, UniProt P9WMN3). In words: Inhibitors of Mycobacterial Glucosamine-1-phosphate acetyl transferase (GlmU). Secondary screen. Also noted: species or system Mycobacterium tuberculosis H37Rv.
Assay [7] in a line: HEp-2 cell cytotoxicity, dose response, cytotoxicity control for RSV inhibitor project, HTS (AID 2410). It is filed as functional. Conditions: human respiratory syncytial virus.
The target in assay [8] is T1, Protein skinhead-1 (Caenorhabditis elegans, UniProt P34707).
T1 sequence (P34707 whole entry): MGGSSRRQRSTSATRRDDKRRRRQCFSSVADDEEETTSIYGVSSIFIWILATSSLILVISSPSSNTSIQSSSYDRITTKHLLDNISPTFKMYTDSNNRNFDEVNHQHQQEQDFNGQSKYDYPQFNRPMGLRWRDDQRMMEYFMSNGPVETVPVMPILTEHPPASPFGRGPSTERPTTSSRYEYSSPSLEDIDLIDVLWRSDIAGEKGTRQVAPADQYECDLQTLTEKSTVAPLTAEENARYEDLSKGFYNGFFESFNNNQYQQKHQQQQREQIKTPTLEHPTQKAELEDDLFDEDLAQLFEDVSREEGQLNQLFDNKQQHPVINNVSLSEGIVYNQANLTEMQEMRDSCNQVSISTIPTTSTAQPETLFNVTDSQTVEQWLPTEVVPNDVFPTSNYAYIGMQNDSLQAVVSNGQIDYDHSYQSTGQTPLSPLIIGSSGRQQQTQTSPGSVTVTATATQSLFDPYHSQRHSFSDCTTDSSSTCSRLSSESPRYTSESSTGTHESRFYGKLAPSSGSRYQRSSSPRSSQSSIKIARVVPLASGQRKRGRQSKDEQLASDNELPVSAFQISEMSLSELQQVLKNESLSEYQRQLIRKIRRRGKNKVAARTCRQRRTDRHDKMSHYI
The format is functional.

Assay [9] in a line: Luminescence-based cell-based high throughput dose response assay to identify activators of the DAF-12 from the parasite S. stercoralis (ssDAF-12). It is filed as functional.
Assay [10] has as its target T2, Oxysterols receptor LXR-beta (Homo sapiens, UniProt P55055).
T2 sequence (P55055 whole entry): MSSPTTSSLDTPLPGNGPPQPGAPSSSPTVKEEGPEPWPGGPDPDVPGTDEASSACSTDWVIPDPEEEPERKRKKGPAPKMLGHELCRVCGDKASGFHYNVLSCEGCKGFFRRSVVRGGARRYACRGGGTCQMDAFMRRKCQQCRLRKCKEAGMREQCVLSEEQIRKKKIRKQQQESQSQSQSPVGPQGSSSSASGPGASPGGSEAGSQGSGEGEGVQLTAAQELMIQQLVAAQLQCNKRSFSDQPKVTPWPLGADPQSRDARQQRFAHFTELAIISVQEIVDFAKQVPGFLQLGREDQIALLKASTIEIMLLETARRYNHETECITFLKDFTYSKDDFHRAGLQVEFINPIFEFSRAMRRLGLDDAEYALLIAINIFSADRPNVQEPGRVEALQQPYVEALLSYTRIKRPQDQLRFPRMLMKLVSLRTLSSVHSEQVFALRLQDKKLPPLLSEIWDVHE
In words: LXR agonists, Gal4 luciferase reporter, dose response, counter-screen for ssDAF-12 agonist project, cell-based, luminescence, HEK293, S. stercoralis campaign (AID 720737). It is filed as functional. The settings on record: read-out: IC50 (the source's name). Background: Reporter assays use an easily measured gene product as a stand-in for the process of interest.

Assay [11] addresses T2, Oxysterols receptor LXR-beta. The format is functional, cell-based.
Assay [12] is described as follows: cells.
The target in assay [13] is Glyceraldehyde-3-phosphate dehydrogenase (Homo sapiens, UniProt P04406).
Assay [14] addresses T3, Bcl-2-related protein A1 (Mus musculus, UniProt Q07440).
T3 sequence (Q07440 whole entry): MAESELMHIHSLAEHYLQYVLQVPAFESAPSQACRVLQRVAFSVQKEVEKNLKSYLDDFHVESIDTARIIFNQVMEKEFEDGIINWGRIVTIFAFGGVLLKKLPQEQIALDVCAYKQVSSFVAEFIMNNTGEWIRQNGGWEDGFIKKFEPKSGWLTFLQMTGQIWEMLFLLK
In words: Bfl-1 inhibitors blocking BH3 peptide binding, confirmation, biochemical, TR-FRET, mouse Bfl-1 (AID 621).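 Also: TR-FRET binding of GST-Bfl-1 to FITC-labelled Bid peptide via terbium antibody.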

The target of assay [15] is T3, Bcl-2-related protein A1. Description: Bfl-1 binding inhibitors, SAR follow-up, biochemical, fluorescence polarization (AID 1070).
Assay [16] has as its target T4, Tyrosine-protein phosphatase non-receptor type 7 (Homo sapiens, UniProt P35236).
T4 sequence (P35236 whole entry): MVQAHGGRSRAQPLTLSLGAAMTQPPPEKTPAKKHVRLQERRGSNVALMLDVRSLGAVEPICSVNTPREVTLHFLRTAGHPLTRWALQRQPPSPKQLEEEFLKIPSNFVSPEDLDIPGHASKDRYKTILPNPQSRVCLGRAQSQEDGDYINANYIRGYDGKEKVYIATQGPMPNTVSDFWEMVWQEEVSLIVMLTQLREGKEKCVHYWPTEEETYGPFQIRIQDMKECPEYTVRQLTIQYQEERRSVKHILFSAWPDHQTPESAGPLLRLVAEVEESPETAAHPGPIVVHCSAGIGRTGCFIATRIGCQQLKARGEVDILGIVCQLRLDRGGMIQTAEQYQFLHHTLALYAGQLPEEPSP
Description: inhibitors of human HePTP phosphatase, […], biochemical, absorbance, leukemia target (AID 521). It is filed as functional.

The nature of assay [17]: Concentration-dependent survival of SW480 colon cancer line, luminescence detection with CellTiter-Glo, half-maximal inhibitory concentration (AID 1117338). It is filed as functional. In general terms: ATP-based viability assays read luminescence as a measure of living cells.
A short description of assay [18]: RKO cell viability reduction, dose response, CellTiter-Glo luminescence (AID 1117322). It is filed as functional.
The nature of assay [19]: cytotoxicity toward HCT116 cells – cell-based, CellTiter-Glo luminescence, IC50, dose response (AID 1117332). It is filed as functional. Conditions: HCT-116.
A short description of assay [20]: SNU-C1 cell viability reduction, dose response, CellTiter-Glo luminescence (AID 1117323). The format is functional, cell-based.
Assay [21] can be described thus: cytotoxicity toward Colo320 cells – cell-based, CellTiter-Glo luminescence, IC50, dose response (AID 1117334). The format is functional. The settings on record: COLO 320.
A short description of assay [22]: cytotoxicity toward HT-29 cells – cell-based, CellTiter-Glo luminescence, IC50, dose response (AID 1117330). It is filed as functional.
Assay [23] is described as follows: CellTiter-Glo luminescent dose response of DLD-1 viability loss (AID 1117352). The format is functional.
Assay [24] is described as follows: NIH-3T3 fibroblast cytotoxicity, dose response, cytotoxicity control, cell-based, fluorescence, Alamar Blue, secondary assay (AID 2327).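 Also: NIH-3T3 mouse fibroblasts cultured with fluconazole at 8 µg/mL.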 It is filed as functional.
Assay [25] in a line: inhibitors of intracellular T. cruzi replication, confirmation, NIH3T3 host cells, beta-gal luminescence (AID 2044).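 Also: intracellular parasites grown in NIH/3T3 mouse fibroblasts as host cells; luminescent beta-galactosidase reporter signal from transgenic T. cruzi replicating inside host cells; inhibitors lower the luminescence signal.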 The format is functional, cell-based.
Assay [26] in a line: microbe, parasite or virus in culture. The format is functional. The settings on record: Mycobacterium tuberculosis.
The nature of assay [27]: cytotoxicity toward NIH3T3 fibroblasts, dose response, counter-screen, cell-based, ATP luminescence, mouse fibroblasts (AID 2010).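 Also: cells exposed to compound for about 90 hours before reading.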 The format is functional. On the technique in general: Counterscreens check selectivity or assay interference.
The target in assay [28] is T5, Microphthalmia-associated transcription factor (Homo sapiens, UniProt O75030).
T5 sequence (O75030 whole entry): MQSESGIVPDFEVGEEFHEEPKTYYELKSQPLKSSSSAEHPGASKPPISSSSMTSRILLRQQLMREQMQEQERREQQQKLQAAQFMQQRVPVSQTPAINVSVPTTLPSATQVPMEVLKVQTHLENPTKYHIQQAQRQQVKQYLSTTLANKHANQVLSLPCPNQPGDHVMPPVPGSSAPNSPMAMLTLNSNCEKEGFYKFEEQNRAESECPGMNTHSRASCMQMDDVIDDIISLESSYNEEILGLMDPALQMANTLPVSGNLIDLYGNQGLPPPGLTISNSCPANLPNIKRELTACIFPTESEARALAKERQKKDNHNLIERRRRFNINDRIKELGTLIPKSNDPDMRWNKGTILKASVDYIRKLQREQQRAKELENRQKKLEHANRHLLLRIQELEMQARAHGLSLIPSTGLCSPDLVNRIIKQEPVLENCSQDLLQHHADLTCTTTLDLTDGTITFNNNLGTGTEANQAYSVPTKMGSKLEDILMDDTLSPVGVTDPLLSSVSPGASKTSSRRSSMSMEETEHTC
Description: TRPM1 promoter luciferase signal decrease, dose response, MITF inhibitor project, cell-based, SK-MEL-5, cherry-picked, set 3 (AID 493073).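 Also: SK-MEL-5 melanoma cells with luciferase driven by the MITF target TRPM1 promoter.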 It is filed as functional.

Assay [29] deals with INS1. Description: beta cell apoptosis inhibitors, cytokine rescue, dose response, luminescence, retest (AID 449756).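 Also: cell death triggered by IL-1 beta plus TNF-alpha plus IFN-gamma mixture; protective hits raise ATP signal compared with cytokine alone wells.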 It is filed as functional, cell-based. Conditions: Rattus norvegicus.
Assay [30] can be described thus: cells. This is another data set of the same source.
A short description of assay [31]: HeLa 2N DNA content increase, dose response, cell-based, IC50 (AID 1117349). The format is functional.
Assay [32] in a line: HeLa 4N DNA content increase, dose response, cell-based, IC50 (AID 1117351). The format is functional.

Usually AC50 stands for the concentration at which the activity in the assay is half-maximal. As usually defined, the Ki is the dissociation constant of the complex between target and ligand, obtained from inhibition or displacement. In general, IC50 refers to the concentration at which inhibition is half-maximal.

Calls of active or inactive are those of the source.

Sequence of fMet-Leu-Phe receptor (P21462 whole entry): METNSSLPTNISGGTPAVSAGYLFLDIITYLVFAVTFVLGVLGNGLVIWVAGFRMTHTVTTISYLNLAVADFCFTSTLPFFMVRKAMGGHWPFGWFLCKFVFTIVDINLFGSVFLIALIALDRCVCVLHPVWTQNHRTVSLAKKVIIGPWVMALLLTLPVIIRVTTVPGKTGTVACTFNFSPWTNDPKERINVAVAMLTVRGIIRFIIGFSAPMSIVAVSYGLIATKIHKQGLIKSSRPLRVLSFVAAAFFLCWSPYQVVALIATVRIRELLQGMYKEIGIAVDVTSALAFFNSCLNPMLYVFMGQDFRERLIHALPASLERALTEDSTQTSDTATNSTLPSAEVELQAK
Sequence of Bifunctional protein GlmU (P9WMN3 whole entry): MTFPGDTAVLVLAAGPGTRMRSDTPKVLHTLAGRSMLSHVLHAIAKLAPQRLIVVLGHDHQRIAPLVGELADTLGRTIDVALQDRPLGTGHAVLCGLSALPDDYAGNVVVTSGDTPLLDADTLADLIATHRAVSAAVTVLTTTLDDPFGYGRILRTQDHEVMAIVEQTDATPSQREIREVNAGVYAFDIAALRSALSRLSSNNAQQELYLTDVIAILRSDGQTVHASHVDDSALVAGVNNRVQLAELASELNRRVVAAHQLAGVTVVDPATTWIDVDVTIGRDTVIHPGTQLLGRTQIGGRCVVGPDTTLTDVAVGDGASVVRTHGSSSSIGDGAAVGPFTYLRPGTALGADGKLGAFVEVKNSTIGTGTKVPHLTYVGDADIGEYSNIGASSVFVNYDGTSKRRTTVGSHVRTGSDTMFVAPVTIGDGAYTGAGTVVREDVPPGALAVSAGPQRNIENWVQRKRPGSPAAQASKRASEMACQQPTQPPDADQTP
Sequence of Glyceraldehyde-3-phosphate dehydrogenase (P04406 whole entry): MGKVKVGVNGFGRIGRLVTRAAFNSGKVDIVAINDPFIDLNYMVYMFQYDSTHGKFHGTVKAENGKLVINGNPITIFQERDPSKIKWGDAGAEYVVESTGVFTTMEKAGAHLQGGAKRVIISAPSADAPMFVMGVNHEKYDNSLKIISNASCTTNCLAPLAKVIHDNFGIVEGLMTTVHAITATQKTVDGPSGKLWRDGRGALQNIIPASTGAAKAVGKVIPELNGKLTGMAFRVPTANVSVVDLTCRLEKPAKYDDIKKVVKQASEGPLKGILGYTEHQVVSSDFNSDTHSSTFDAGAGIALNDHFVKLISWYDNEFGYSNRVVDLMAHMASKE
Sequence of Paired box protein Pax-8 (Q06710 whole entry): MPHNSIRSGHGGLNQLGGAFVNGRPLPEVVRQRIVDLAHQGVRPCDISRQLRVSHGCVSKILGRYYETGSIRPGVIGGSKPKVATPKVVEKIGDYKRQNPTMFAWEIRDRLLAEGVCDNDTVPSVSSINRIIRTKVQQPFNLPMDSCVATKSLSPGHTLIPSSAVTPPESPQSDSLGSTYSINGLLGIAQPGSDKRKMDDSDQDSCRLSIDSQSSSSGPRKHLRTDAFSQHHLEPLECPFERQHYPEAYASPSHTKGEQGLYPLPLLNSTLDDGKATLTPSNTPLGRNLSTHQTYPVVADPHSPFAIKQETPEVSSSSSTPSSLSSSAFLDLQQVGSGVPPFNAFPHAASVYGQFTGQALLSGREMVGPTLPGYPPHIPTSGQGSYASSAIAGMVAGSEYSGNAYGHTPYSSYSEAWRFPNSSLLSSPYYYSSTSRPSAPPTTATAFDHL

On to `C[C@H]1CCCCO[C@@H](CN(C)S(=O)(=O)c2cccs2)[C@@H](C)CN([C@@H](C)CO)C(=O)c2cc(NS(=O)(=O)c3ccc(Cl)cc3)ccc2O1`, for which the AC50 in assay [1] is 7.93 µM (active); in assay [2], 14.1 µM (active); in assay [3], 42.6 µM (active); in assay [4], > 70 µM (inactive).

For the compound `Cc1ccc(C(=O)C2=C(O)C(=O)N(CC(C)O)C2c2ccc(N(C)C)cc2)cc1` (stereo not drawn), the Ki in assay [5] is > 66.7 µM (inactive).

For the compound `CN1CCN(C(=S)NC(=O)c2ccc(Cl)cc2)CC1`, the IC50 in assay [6] is 132 µM (active).

For the compound `Cc1cccc(Nc2nc(-c3cccs3)cs2)n1`, in assay [7], the CC50 was 9.85 µM (active). Besides, the IC50 in assay [8] is > 100 µM (inactive); in assay [9], > 67.5 µM (inactive). Also, the EC50 in [10], in [11] and in assay [12] was > 67.5 µM (inactive) each time.

In the case of `CCCCN1CCN(C2=C(Cl)C(=O)N(c3ccc(Cl)c(Cl)c3)C2=O)CC1`, the figures for the IC50 in assay [13], in [14] and in [15] were > 100 µM (not active), 3.28 µM (active) and 10.5 µM (active), respectively.

For `Cc1ccc(OCC(=O)Nc2ccc(-c3nnc(-c4ccco4)o3)cc2)cc1`, the IC50 in assay [16] was > 100 µM (not active).

For the compound `Cc1c(C)c2c(c(C)c1O)CC[C@@](C)(CCC[C@H](C)CCC[C@H](C)CCCC(C)C)O2` [alpha-TOCHOPHEROL], the IC50 in assay [17] was > 20 µM (inactive); in assay [18] it was 2.61 µM (active); in assay [19], > 20 µM (inactive); in assay [20], > 20 µM (inactive); in [21], > 20 µM (inactive); in [22], > 20 µM (inactive). For the same compound, the IC50 in assay [23] is > 20 µM (inactive).

For `CCOc1ccc(-[n+]2c(-c3ccc(Br)cc3)cn3c2CCCCC3)cc1`, the EC50 was > 160 µM (inactive) in assay [24], < 0.1 µM (active) in assay [25], > 60 µM (not active) in assay [27] and 0.073 µM (active) in assay [30]. The CC50 in assay [26] is 21.2 µM (active). The AC50 in assay [28] was 3.87 µM (active); in assay [29], 1.07 µM (active).

On to `C=CCOc1cccc(C2C(C(=O)c3ccco3)=C(O)C(=O)N2CCN2CCOCC2)c1` (stereo not drawn), for which the Ki in assay [5] is > 66.7 µM (inactive).

As to `COc1ccc(/C=C/C(=O)c2ccc(OC)cc2OC)cc1`, the IC50 in [31] and in assay [32] was > 10 µM (inactive) each time.

The values above are taken from ChEMBL document CHEMBL1201862, “PubChem BioAssay data set” (2004).
